Test results taken from publication PMC10010340, “The Wnt Pathway Inhibitor RXC004 Blocks Tumor Growth and Reverses Immune Evasion in Wnt Ligand–dependent Cancer Models” (Cancer Research Communications, 2022).

Assays:
MDR1 = experiment: Permeability in MDR1-MDCKII cells; type: in vitro ADME; conditions: dog, MDCK-MDR1, 10 μmol/L, 2 hours
Procedure: (§1) Permeability of RXC004 was assessed in MDR1-MDCKII (Netherlands Cancer Institute) and Caco-2 cells (Merck Life Sciences). RXC004 (10 μmol/L) was added to either apical or basolateral chamber for 2 hours at 37°C, then an aliquot from the opposite side of the monolayer was removed and quantified by LC/MS-MS. Apparent permeability (Papp) was calculated according to standard practice ([20]).

MDR1-MDCKII cells = experiment: Permeability in MDR1-MDCKII cells; type: in vitro ADME; conditions: MDR1-MDCKII cells
Procedure: as §1

Microsomal stability = type: in vitro ADME; conditions: Human, 1 μmol/L
Procedure: (§2) Metabolic stability: liver microsomes and hepatocytes from human, mouse (CD1), rat (Sprague Dawley) and dog (Beagle) were obtained from Invitrogen. RXC004 (1 μmol/L) was incubated at 37°C with microsomes (0.5 mg · mL^−1) or hepatocytes (0.5 × 10^6 cells · mL^−1). Aliquots were removed at 0–45 minutes and RXC004 concentrations determined by LC/MS-MS analysis. Half-life (T1/2) and intrinsic clearance (CLint) were calculated as described in ref. [18].

recombinant CYP enzymes = experiment: Recombinant CYP enzyme assays (metabolism); type: in vitro ADME
[1] = Pharmacokinetic/pharmacodynamic analysis in SNU-1411/NOD-SCID mice, 7 days; type: in vivo, mouse (NOD-SCID); conditions: NOD-SCID, mouse, plasma, oral; 20 ng/mL equivalent to 10× IC50; read-out: total plasma concentration equivalent to free IC50
Procedure: (§3) To explore dose–response effects in vivo, SNU-1411 (1 × 10^7 cells) were implanted into NOD-SCID mice subcutaneously at Axis Bioservices. Animals were randomized into the indicated groups and oral dosing of RXC004 was initiated when tumors reached approximately 200 mm^3. Tumor volume measurements were taken at day 19, n ≥9 per group. Pharmacokinetic/pharmacodynamic analysis in SNU1411/NOD-SCID mice was performed in a separate study at Axis Biosciences, with tissue and plasma extracted for assessments after 7 days of RXC004 dosing. Tumor was divided into two sections; one section snap frozen and the other processed by FFPE. RXC004 levels were determined in snap frozen tumor and blood samples by LC/MS-MS. Expression analysis of the indicated genes was performed on snap frozen tumor as described above. Serial FFPE tumor sections were stained with H&E, anti-Ki67 (Abcam #Ab15580) or the dual mucin stain Alcian-blue/periodic acid shift (AB-PAS) at Histologix. IHC images were quantified using HALO software and modules (Indica Labs). The AB-PAS images were analyzed with the area quantification module on tumor area. A classifier was trained to detect differentiated and nondifferentiated tumor areas in RXC004-treated tumors using the AB-PAS–stained slides. Image registration was used to assign annotations from AB-PAS images to Ki67 images. The Ki67 images were analyzed with the multiplex IHC module and number of Ki67-positive cells were determined per mm^2 of total or differentiated tumor area.

SNU-1411 xenograft = experiment: as above; type: in vivo, mouse (NOD-SCID)
Procedure: as §3

Hepatocyte stability [2] = type: in vitro ADME, mouse (CD1); conditions: Mouse, 1 μmol/L
Procedure: as §2

[3] = test system: cells with upstream aberrations in Wnt pathway components; experiment: Cell-cycle analysis by flow cytometry; type: cell-based, human; conditions: 100 nmol/L, 3 days
Procedure: For concentration–response effects on gene expression, Single-Shot Cell Lysis kit (Bio-Rad #172-5080) was used for RNA extraction, data were normalized to DMSO-treated controls, and IC50 values determined. For cell-cycle analysis, the cancer cell line panel was treated with RXC004 (100 nmol/L) or DMSO (0.1%) for 3 days. Cell-cycle profiles were determined by staining with propidium iodide (Thermo Fisher Scientific #P3566) and phospho-Ser10-Histone-H3 (AlexaFluor-647, BioLegend #650806), and quantified using an Agilent Novocyte-3000 flow cytometer. For in vitro growth curve analysis, HPAF-II and SNU-1411 cells were seeded in 96-well plates at 2,000 cells/well and imaged on the IncuCyte (Sartorius) at 10× magnification with 4 fields of view per well. Total cell object count over time was calculated using the Adherent Cell-by-Cell analysis module.

Hepatocyte stability [4] = type: in vitro ADME; conditions: Human, 1 μmol/L
Procedure: as §2

[5] = test system: Wnt5a secretion from L-Wnt5a cells; experiment: Wnt secretion assay; type: cell-based; conditions: 300 nmol/L, 48 hours
Procedure: L-Wnt5a cells (L cells overexpressing Wnt5a; ATCC CRL-2814) were treated with RXC004 (300 nmol/L) or DMSO for 48 hours. Wnt5a secreted into media was detected by Western blotting using anti-Wnt5a antibody (Cell Signaling Technology #2530).

CYP2C9 = target: T1, CYP2C9 (Homo sapiens, UniProt P11712); experiment: Cytochrome P450 inhibition in human liver microsomes; type: in vitro ADME
T1 construct: from tissue; host or cells: human liver microsomes
Procedure: (§4) Cytochrome P450 (CYP) assays were performed using human liver microsomes incubated with P450 specific substrates as recommended by the FDA ([19]) at a concentration equivalent to Km in the presence of 0.03–30 μmol/L RXC004, or solvent control. Concentration of the metabolites was analyzed by LC/MS-MS.

CYP1A2 = target: T2, CYP1A2 (Homo sapiens, UniProt P05177); experiment: as above; type: in vitro ADME
T2 construct: from tissue; host or cells: human liver microsomes
Procedure: as §4

CYP2C19 = target: T3, CYP2C19 (Homo sapiens, UniProt P33261); experiment: as above; type: in vitro ADME
T3 construct: from tissue; host or cells: human liver microsomes
Procedure: as §4

CYP2D6 = target: T4, CYP2D6 (Homo sapiens, UniProt P10635); experiment: as above; type: in vitro ADME
T4 construct: from tissue; host or cells: human liver microsomes
Procedure: as §4

CYP3A4 = target: T5, CYP3A4 (Homo sapiens, UniProt P08684); experiment: as above; type: in vitro ADME
T5 construct: from tissue; host or cells: human liver microsomes
Procedure: as §4

T1 sequence (P11712 whole entry): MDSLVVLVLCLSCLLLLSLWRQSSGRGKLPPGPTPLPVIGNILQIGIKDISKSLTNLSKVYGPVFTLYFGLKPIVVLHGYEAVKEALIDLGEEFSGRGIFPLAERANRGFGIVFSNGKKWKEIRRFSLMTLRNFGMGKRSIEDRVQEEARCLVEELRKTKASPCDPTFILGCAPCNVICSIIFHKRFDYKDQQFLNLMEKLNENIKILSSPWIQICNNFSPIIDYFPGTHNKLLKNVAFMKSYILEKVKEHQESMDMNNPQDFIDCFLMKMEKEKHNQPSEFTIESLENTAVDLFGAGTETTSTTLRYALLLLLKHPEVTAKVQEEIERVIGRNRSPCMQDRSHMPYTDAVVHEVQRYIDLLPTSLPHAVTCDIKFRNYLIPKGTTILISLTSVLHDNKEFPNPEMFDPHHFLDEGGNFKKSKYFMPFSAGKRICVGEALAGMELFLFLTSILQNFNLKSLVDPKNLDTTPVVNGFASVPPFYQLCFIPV
T2 sequence (P05177 whole entry): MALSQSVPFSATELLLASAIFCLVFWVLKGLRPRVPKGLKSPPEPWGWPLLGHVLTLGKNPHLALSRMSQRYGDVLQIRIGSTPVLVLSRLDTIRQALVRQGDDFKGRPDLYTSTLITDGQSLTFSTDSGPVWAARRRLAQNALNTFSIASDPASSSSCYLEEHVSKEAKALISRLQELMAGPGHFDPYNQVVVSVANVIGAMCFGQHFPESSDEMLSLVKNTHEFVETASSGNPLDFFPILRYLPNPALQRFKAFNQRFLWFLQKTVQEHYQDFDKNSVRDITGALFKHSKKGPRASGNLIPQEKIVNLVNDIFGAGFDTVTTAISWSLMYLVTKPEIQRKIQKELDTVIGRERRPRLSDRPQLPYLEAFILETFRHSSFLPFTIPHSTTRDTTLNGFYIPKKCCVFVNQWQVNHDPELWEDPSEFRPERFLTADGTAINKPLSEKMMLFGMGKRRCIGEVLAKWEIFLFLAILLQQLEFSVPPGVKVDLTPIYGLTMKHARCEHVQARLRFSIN
T4 sequence (P10635 whole entry): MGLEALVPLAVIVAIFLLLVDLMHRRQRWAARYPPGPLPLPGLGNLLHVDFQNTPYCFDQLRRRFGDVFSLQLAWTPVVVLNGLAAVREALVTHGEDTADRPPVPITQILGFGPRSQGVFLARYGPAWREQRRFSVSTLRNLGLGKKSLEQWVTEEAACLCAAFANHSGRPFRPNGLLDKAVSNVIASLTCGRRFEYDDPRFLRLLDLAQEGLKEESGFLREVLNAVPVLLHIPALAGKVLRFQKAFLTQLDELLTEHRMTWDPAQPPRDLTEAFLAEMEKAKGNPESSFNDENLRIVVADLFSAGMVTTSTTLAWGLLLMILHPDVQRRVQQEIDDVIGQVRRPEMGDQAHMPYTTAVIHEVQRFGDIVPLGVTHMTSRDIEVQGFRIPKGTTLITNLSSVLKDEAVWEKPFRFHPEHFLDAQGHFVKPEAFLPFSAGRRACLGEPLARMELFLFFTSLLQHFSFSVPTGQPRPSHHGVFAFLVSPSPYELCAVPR
T5 sequence (P08684 whole entry): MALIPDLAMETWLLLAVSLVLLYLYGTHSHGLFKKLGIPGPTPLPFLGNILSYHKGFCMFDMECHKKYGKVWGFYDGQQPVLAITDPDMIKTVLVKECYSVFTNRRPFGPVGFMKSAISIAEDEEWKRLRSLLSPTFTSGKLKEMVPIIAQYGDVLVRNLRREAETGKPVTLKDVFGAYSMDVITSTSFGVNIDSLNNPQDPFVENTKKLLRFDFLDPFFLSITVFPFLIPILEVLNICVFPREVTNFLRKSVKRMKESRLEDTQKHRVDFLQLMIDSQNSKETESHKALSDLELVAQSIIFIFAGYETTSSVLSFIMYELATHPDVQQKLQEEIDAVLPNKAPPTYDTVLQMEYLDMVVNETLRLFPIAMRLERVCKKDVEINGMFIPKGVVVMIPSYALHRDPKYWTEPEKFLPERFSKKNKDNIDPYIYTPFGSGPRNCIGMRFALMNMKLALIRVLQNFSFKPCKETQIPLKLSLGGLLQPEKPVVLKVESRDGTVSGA
T3 sequence (P33261 whole entry): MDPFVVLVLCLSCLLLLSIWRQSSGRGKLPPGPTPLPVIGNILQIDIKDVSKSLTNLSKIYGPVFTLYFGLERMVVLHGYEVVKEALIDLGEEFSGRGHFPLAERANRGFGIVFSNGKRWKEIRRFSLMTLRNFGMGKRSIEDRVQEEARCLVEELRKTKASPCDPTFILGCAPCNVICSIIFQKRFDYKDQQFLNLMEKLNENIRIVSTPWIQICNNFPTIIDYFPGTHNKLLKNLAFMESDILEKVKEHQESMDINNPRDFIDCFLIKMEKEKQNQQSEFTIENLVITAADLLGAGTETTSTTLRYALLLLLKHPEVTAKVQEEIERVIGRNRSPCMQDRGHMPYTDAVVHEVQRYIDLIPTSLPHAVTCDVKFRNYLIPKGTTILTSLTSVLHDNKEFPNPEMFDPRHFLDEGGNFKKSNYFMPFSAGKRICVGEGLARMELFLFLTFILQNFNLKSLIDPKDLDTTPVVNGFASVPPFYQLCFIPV

SMILES: Cc1c(-c2ccnc(C(F)(F)F)c2)ncn1CC(=O)Nc1ccc(-c2cnccn2)cn1 [RXC004, 2-[5-methyl-4-[2-(trifluoromethyl)-4-pyridyl]imidazol-1-yl]-N-(5-pyrazin-2-yl-2-pyridyl)acetamide]
- Papp A→B at 2 h, 10 μmol/L (MDR1; apical to basolateral, read-out: MDCK PappA-B): 15 ×10⁻⁶ cm/s
- Papp B→A at 2 h, 10 μmol/L (MDR1; basolateral to apical, read-out: MDCK PappB-A): 51.9 ×10⁻⁶ cm/s
- efflux (MDR1-MDCKII cells): some evidence of efflux in MDR1-MDCKII cells
- Microsomal stability: CLint (Microsomal stability): 6.0 μL minute^−^1 · mg^−^1
- metabolizing CYP enzyme (recombinant CYP enzymes): exclusively metabolized by CYP3A4
- IC50 [1]: 2 ng/mL
- c-Myc gene expression in tumor (SNU-1411 xenograft; 1.5 or 5 mg/kg once daily, 7 days): Inhibition of c-Myc gene expression in tumor
- tumor differentiation and mucin levels (Alcian-blue/PAS) (SNU-1411 xenograft; intermediate effects at 1.5 mg/kg once daily, stronger at 5 mg/kg once daily): increased tumor differentiation and increased mucin levels
- dose proportionality of levels in plasma and tumor (SNU-1411 xenograft; oral 1.5 or 5 mg/kg once daily, 7 days): good dose proportionality
- Ki67-positive cells in tumor (SNU-1411 xenograft; total tumor area, more significantly in differentiated tumor): Ki67-positive cells were reduced
- Hepatocyte stability: CLint (Hepatocyte stability [2]): <3.0 μL minute^−^1 · 10^6 cells^−^1
- expression of mitosis marker phospho-histone-H3 [3]: strongly inhibited expression of the mitosis marker phospho-histone-H3
- proportion of cells in S-phase [3]: reduced the proportion of cells in S-phase
- Hepatocyte stability: CLint (Hepatocyte stability [4]): <3.0 μL minute^−^1 · 10^6 cells^−^1
- Wnt5a secretion into the media [5]: inhibited Wnt5a secretion
- IC50 (CYP2C9): > 25 µM
- IC50 (CYP1A2): > 25 µM
- IC50 (CYP2C19): > 25 µM
- IC50 (CYP2D6): > 25 µM
- IC50 (CYP3A4): > 25 µM
